# Experimental data as given in patent US20240400553A1, “AMINE BASED MATRIPTASE 2 INHIBITORS AND USES THEREOF” (Disc Medicine, Inc., priority 2023, published 2024).
# Biological target: T1, Human Recombinant Matriptase 2 (Homo sapiens, UniProt Q8IU80)
# T1 construct: made in house
# T1 sequence (Q8IU80 1-811): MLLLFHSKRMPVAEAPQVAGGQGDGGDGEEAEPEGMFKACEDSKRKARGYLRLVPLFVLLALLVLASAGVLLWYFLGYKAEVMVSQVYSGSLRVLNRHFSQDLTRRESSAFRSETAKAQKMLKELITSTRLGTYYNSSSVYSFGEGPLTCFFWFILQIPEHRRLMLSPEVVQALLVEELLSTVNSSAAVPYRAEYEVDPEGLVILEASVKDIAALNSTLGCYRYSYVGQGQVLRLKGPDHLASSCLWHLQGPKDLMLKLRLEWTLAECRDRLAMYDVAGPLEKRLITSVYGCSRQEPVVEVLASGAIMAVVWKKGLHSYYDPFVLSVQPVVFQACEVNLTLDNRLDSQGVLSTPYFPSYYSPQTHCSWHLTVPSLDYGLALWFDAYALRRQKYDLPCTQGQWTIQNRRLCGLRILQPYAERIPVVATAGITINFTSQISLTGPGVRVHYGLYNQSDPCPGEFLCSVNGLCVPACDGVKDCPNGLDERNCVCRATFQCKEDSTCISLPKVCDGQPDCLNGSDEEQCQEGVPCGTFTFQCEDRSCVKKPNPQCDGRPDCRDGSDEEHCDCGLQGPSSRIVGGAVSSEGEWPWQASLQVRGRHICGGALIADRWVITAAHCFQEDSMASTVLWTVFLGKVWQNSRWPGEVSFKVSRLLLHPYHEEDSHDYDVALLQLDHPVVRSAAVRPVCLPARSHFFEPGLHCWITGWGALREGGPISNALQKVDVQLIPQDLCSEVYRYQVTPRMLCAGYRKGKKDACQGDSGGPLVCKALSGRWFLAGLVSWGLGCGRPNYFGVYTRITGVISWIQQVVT
# Test: Matriptase 2 inhibition, fluorescence based assay (Method I)
# Format: biochemical
# Conditions: Table A; Ki of Matriptase-2; read-out: Mat-2 Ki
# Procedure, shortened: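 In-house recombinant enzyme (3.5 nM), preincubated 30 min with compound, then Boc-Gln-Ala-Arg-AMC substrate (62 μM) in 50 mM Tris pH 7.5, 150 mM NaCl, 0.01% gelatin, 1% DMSO, 25 °C. Fluorescence (Ex 360/Em 480 nm) read 60 min after substrate; IC50 from variable-slope sigmoidal fit of % inhibition.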
row,Structure (SMILES),Ki [nM]
1,"CN(C)CCOC(=O)c1cc2ccc(CN)nc2n1Cc1cc(NS(=O)(=O)Cc2cccs2)cc2ccccc12 [Compound 148, 2-(dimethylamino)ethyl 6-(aminomethyl)-1-({3-[(thiophen-2-yl)methane-sulfonamido]naphthalen-1-yl}methyl)-1H-pyr-rolo[2,3-b]pyridine-2-carboxylate]",≤ 100
2,"CN1CCC(COC(=O)c2cc3ccc(CN)nc3n2Cc2cc(NS(=O)(=O)Cc3ccc(F)s3)cc3ccccc23)CC1 [Compound 149, (1-methylpiperidin-4-yl)methyl 6-(amino-methyl)-1-({3-[(5-fluoro-thiophen-2-yl)methane-sulfonamido]naphthalen-1-yl}methyl)-1H-pyr-rolo[2,3-b]pyridine-2-carboxylate]",≤ 100
3,"NCc1ccc2cc(C(=O)OCCN3CCOCC3)n(Cc3cc(NS(=O)(=O)Cc4cccs4)cc4ccccc34)c2n1 [Compound 151, 2-(morpholin-4-yl)ethyl 6-(aminomethyl)-1-({3-[(thiophen-2-yl)methane-sulfonamido]naphthalen-1-yl}methyl)-1H-pyr-rolo[2,3-b]pyridine-2-carboxylate]",≤ 100
4,"CNCCOC(=O)c1cc2ccc(CN)nc2n1Cc1cc(NS(=O)(=O)Cc2cccs2)cc2ccccc12 [Compound 152, 2-(methylamino)ethyl 6-(aminomethyl)-1-({3-[(thiophen-2-yl)methane-sulfonamido]naphthalen-1-yl}methyl)-1H-pyr-rolo[2,3-b]pyridine-2-carboxylate]",≤ 100
5,"NCc1ccc2cc(C(=O)O)n(Cc3cc(NS(=O)(=O)Cc4cccs4)cc4ccccc34)c2n1 [Compound 153, 6-(aminomethyl)-1-({3-[(thiophen-2-yl)methane-sulfonamido]naphthalen-1-yl}methyl)-1H-pyr-rolo[2,3-b]pyridine-2-carboxylic acid]",≤ 100
6,"CCOC(=O)c1cc2ccc(CN)nc2n1Cc1cc(NS(=O)(=O)Cc2cccs2)cc2ccccc12 [Compound 154, ethyl 6-(aminomethyl)-1-({3-[(thiophen-2-yl)-methanesulfonamido]-naphthalen-1-yl}methyl)-1H-pyrrolo[2,3-b]pyr-idine-2-carboxylate]",100 to 500
7,"Cn1cncc1COC(=O)c1cc2ccc(CN)nc2n1Cc1cc(NS(=O)(=O)Cc2ccsc2)cc2ccccc12 [Compound 155, (1-methyl-1H-imidazol-5-yl)methyl 6-(amino-methyl)-1-({3-[(thiophen-3-yl)methanesulfon-amido]naphthalen-1-yl}-methyl)-1H-pyrrolo[2,3-b]pyridine-2-carboxylate]",≤ 100
8,"Cn1ccnc1COC(=O)c1cc2ccc(CN)nc2n1Cc1cc(NS(=O)(=O)Cc2ccsc2)cc2ccccc12 [Compound 157, (1-methyl-1H-imidazol-2-yl)methyl 6-amino-methyl)-1-({3-[(thio-phen-3-yl)methanesul-fonamido]naphthalen-1-yl}methyl)-1H-pyrrolo-[2,3-b]pyridine-2-car-boxylate]",≤ 100
9,"NCc1ccc2cc(C(=O)OC[C@H]3COCCN3)n(Cc3cc(NS(=O)(=O)Cc4ccsc4)cc4ccccc34)c2n1 [Compound 158, [(3R)-morpholin-3-yl]-methyl 6-(aminometh-yl)-1-({3-[(thiophen-3-yl)methanesulfonamido]-naphthalen-1-yl}meth-yl)-1H-pyrrolo[2,3-b]-pyridine-2-carboxylate]",≤ 100
10,"CC(C)(C)n1cncc1COC(=O)c1cc2ccc(CN)nc2n1Cc1cc(NS(=O)(=O)Cc2ccsc2)cc2ccccc12 [Compound 159, (1-tert-butyl-1H-imid-azol-5-yl)methyl 6-(aminomethyl)-1-({3-[(thiophen-3-yl)methane-sulfonamido]naphthalen-1-yl}methyl)-1H-pyr-rolo[2,3-b]pyridine-2-carboxylate]",≤ 100
11,"CN(C)CCOC(=O)c1cc2ccc(CN)nc2n1Cc1cc(NS(=O)(=O)Cc2ccsc2)cc2ccccc12 [Compound 169, 2-(dimethylamino)ethyl 6-(aminomethyl)-1-({3-[(thiophen-3-yl)methane-sulfonamido]naphthalen-1-yl}methyl)-1H-pyr-rolo[2,3-b]pyridine-2-carboxylate]",≤ 100

# Now from value to compound:
row,Ki [nM],Structure (SMILES)
1,≤ 100,"CN1CCC(COC(=O)c2cc3ccc(CN)nc3n2Cc2cc(NS(=O)(=O)Cc3cccs3)cc3ccccc23)CC1 [Compound 146, (1-methylpiperidin-4-yl)-methyl 6-(aminometh-yl)-1-({3-[(thiophen-2-yl)methanesulfonamido]-naphthalen-1-yl}methyl)-1H-pyrrolo[2,3-b]pyr-idine-2-carboxylate]"
2,≤ 100,"CN1CCC(COC(=O)c2cc3ccc(CN)nc3n2Cc2cc(NS(=O)(=O)Cc3sccc3F)cc3ccccc23)CC1 [Compound 147, (1-methylpiperidin-4-yl)-methyl 6-(aminomethyl)-1-({3-[(3-fluorothiophen-2-yl)methanesulfon-amido]naphthalen-1-yl}-methyl)-1H-pyrrolo[2,3-b]pyridine-2-carboxylate]"
3,≤ 100,"CN1CCC(CCOC(=O)c2cc3ccc(CN)nc3n2Cc2cc(NS(=O)(=O)Cc3cccs3)cc3ccccc23)CC1 [Compound 150, 2-(1-methylpiperidin-4-yl)ethyl 6-(aminometh-yl)-1-({3-[(thiophen-2-yl)methanesulfonamido]-naphthalen-1-yl}methyl)-1H-pyrrolo[2,3-b]pyr-idine-2-carboxylate]"
4,≤ 100,"NCc1ccc2cc(C(=O)OCCN3CCNCC3)n(Cc3cc(NS(=O)(=O)Cc4ccsc4)cc4ccccc34)c2n1 [Compound 156, 2-(piperazin-1-yl)ethyl 6-(aminomethyl)-1-({3-[(thiophen-3-yl)methane-sulfonamidoJnaphthalen-1-yl}methyl)-1H-pyr-rolo[2,3-b]pyridine-2-carboxylate]"
5,≤ 100,"NCc1ccc2cc(C(=O)OCCCN3CCOCC3)n(Cc3cc(NS(=O)(=O)Cc4ccsc4)cc4ccccc34)c2n1 [Compound 160, 3-(morpholin-4-yl)prop-yl 6-(aminomethyl)-1-({3-[(thiophen-3-yl)meth-anesulfonamido]naph-thalen-1-yl}methyl)-1H-pyrrolo[2,3-b]pyridine-2-carboxylate]"
6,≤ 100,"CN1CCN(CCOC(=O)c2cc3ccc(CN)nc3n2Cc2cc(NS(=O)(=O)Cc3ccsc3)cc3ccccc23)CC1 [Compound 161, 2-(4-methylpiperazin-1-yl)ethyl 6-(aminometh-yl)-1-({3-[(thiophen-3-yl)methanesulfonamido]-naphthalen-1-yl}meth-yl)-1H-pyrrolo[2,3-b]-pyridine-2-carboxylate]"
7,≤ 100,"CN1CCC(CCNC(=O)c2cc3ccc(CN)nc3n2Cc2cc(NS(=O)(=O)Cc3ccsc3)cc3ccccc23)CC1 [Compound 162, 6-(aminomethyl)-N-[2-(1-methylpiperidin-4-yl)-ethyl]-1-({3-[(thiophen-3-yl)methanesulfon-amido]naphthalen-1-yl}-methyl)-1H-pyrrolo[2,3-b]pyridine-2-carboxamide]"
8,≤ 100,"Cc1cscc1CS(=O)(=O)Nc1cc(Cn2c(C(=O)OCC3CCN(C)CC3)cc3ccc(CN)nc32)c2ccccc2c1 [Compound 163, (1-methylpiperidin-4-yl)-methyl 6-(aminomethyl)-1-({3-[(4-methylthio-phen-3-yl)methanesul-fonamido]naphthalen-1-yl}methyl)-1H-pyrrolo-[2,3-b]pyridine-2-car-boxylate]"
9,≤ 100,"NCc1ccc2cc(C(=O)OCC3CCN(C=O)CC3)n(Cc3cc(NS(=O)(=O)Cc4ccsc4)cc4ccccc34)c2n1 [Compound 164, (1-formylpiperidin-4-yl)methyl 6-(aminometh-yl)-1-({3-[(thiophen-3-yl)methanesulfonamido]-naphthalen-1-yl}methyl)-1H-pyrrolo[2,3-b]pyr-idine-2-carboxylate]"
10,≤ 100,Cn1ccnc1CNC(=O)c1cc2ccc(CN)nc2n1Cc1cc(NS(=O)(=O)Cc2ccsc2)cc2ccccc12 [Compound 165]
11,≤ 100,"COCCN1CCC(COC(=O)c2cc3ccc(CN)nc3n2Cc2cc(NS(=O)(=O)Cc3ccsc3)cc3ccccc23)CC1 [Compound 167, [1-(2-methoxyethyl)-piperidin-4-yl]methyl 6-(aminomethyl)-1-({3-[(thiophen-3-yl)meth-anesulfonamido]naph-thalen-1-yl}methyl)-1H-pyrrolo[2,3-b]pyridine-2-carboxylate]"
12,≤ 100,"NCc1ccc2cc(C(=O)OCCN3CCOCC3)n(Cc3cc(NS(=O)(=O)Cc4ccsc4)cc4ccccc34)c2n1 [Compound 168, 2-(morpholin-4-yl)ethyl 6-(aminomethyl)-1-({3-[(thiophen-3-yl)methane-sulfonamido]naphthalen-1-yl}methyl)-1H-pyr-rolo[2,3-b]pyridine-2-carboxylate]"
